Test [1] concerns the target Kir1.1 (ROMK1) (Homo sapiens (Human), UniProt P48048). The experiment in a line: Electrophysiology Assay (whole cell voltage clamp, IonWorks Quattro). In kind it is cell-based. As to conditions: Chinese hamster ovary cells stably expressing Kir1.1; block during voltage step to 0 mV. As for the experimental part: Block of Kir1.1 (ROMK1) currents was examined by whole cell voltage clamp (Hamill et. al. […] Prior to an experiment, Kir1.1 expression was induced by overnight incubation with 1 mM sodium butyrate. […] After centrifugation, the cell pellet was resuspended in approximately 4.0 mL of bath solution and placed in the IonWorks instrument. The intracellular solution consisted of (in mM): 80 K gluconate, 40 KCl, 20 KF, 3.2 MgCl2, 3 EGTA, 5 Hepes, pH 7.4. […] Amphotericin B (Sigma A-4888) was prepared as a 40 mg/mL solution in DMSO. Voltage protocols and current recordings were performed using the IonWorks HT software/hardware system. […] No correction for liquid junction potentials was used. The test pulse, consisting of a 100 ms step to 0 mV from a holding potential of −70 mV, followed by a 100 ms voltage ramp from −70 mV to +70 mV, was applied before and after a 6 min compound incubation period. Test compounds were prepared by diluting DMSO stock solutions into the bath solution at 3× the final concentration and placed in the instrument in 96-well polypropylene plates. Current amplitudes were measured using the IonWorks software. To assess compound potency, the fractional block during the voltage step to 0 mV was calculated in Microsoft Excel (Microsoft, Redmond, Calif.), and dose-response curves were fitted with Igor Pro 4.0 (WaveMetrics, Lake Oswego, Oreg.).
A general note: In patch-clamp work, channel activity is measured electrically.

In test [2] the target is hROMK (hKir1.1) (Homo sapiens (Human), UniProt P48048). In words: Thallium Flux Assay (ROMK channel functional thallium flux, FLIPR-Tetra). The format is cell-based. As to conditions: HEK293 cells stably expressing hROMK (hKir1.1). As to the method:
HEK293 cells stably expressing hROMK (hKir1.1) were grown at 37° C. in a 10% CO2 humidified incubator in complete growth media: Dulbecco's Modified Eagle Medium supplemented with non-essential amino acids, Penicillin/Streptomycin/Glutamine, G418 and FBS. At >80% confluency, aspirate the media from the flask and rinse with 10 mL Calcium/Magnesium-free PBS. Add 5 mL of 1× trypsin (prepared in Ca/Mg Free PBS) to T-225 flask and return flask to 37° C./CO2 incubator for 2-3 minutes. To dislodge the cell, gently bang the side of the flask with your hand. Triturate the cells completely and then transfer the cells to 25 mL complete media. Centrifuge at 1,500 rpm for 6 min followed by resuspension in complete growth media and determine cell concentration. For typical re-seeding, 4E6 cells/T-225 flask will attain>80% confluency in 4 days. Under ideal growth conditions and appropriate tissue culture practices, this cell line is stable for 40-45 passages.
• FluxOR™ Reagent (Component A) • FluxOR™ Assay Buffer (Component B)—10× Concentrate • PowerLoad™ Concentrate (Component C)—100× Concentrate • Probenecid (Component D)—Lyophilized sample is kept at −20° C. Water soluble, 100× after solubilization in 1 mL water. Store at 4° C. • FluxOR™ Chloride-free Buffer (Component E)—5× Concentrate • Potassium sulfate (K2SO4) Concentrate (Component F)—125 mM in water. Store at 4° C. • Thallium sulfate (Tl2SO4) Concentrate (Component G)—50 mM in water. Store at 4° C. • DMSO (dimethyl sulfoxide, Component H)—1 mL (100%) Reagent Preparation: FluxOR Working Solutions • 1000× FluxOR™ Reagent: Reconstitute a vial of component A in 100 μl DMSO; Mix well; Store 10 μl aliquots at −20° C. • 1× FluxOR™ Assay Buffer: Dilute Component B 10-fold with water; Adjust pH to 7.4 with Hepes/NaOH; Filter and store at 4° C. • Probenecid/Assay Buffer: 100 mL of 1× FluxOR™ Assay Buffer; 1 mL of reconstituted component D; Store at 4° C. • Loading Buffer (per microplate): 10 μl 1000× FluxOR™ Reagent; 100 μl component C; 10 mL Probenecid/Assay Buffer • Compound Buffer (per microplate): 20 mL Probenecid/Assay Buffer; 0.3 mM ouabain (10 mM ouabain in water can be stored in amber bottle/aluminum foil at room temperature); Test compound • 1× FluxOR™ Chloride-Free Buffer: Prepare 1× working solution in water. Can be stored at room temperature • Stimulant Buffer (prepared at 5× final concentration in 1× FluxOR™ Chloride-Free Buffer): 7.5 mM Thallium sulfate and 0.75 mM Potassium sulfate (to give a final assay concentration of 3 mM Thallium/0.3 mM Potassium). Store at 4° C. when not in use. If kept sterile, this solution is good for months. Assay Protocol—
The ROMK channel functional thallium flux assay is performed in 384 wells, using the FLIPR-Tetra instrument. HEK-hKir1.1 cells are seeded in Poly-D-Lysine microplates and kept in a 37° C.-10% CO2 incubator overnight. On the day of the experiment, the growth media is replaced with the FluxOR™ reagent loading buffer and incubated, protected from light, at ambient temperature (23-25° C.) for 90 min. The loading buffer is replaced with assay buffer±test compound followed by 30 min incubation at ambient temperature, where the Thallium/Potassium stimulant is added to the microplate.
• 1. Seed HEK-hKir1.1 cells (50 μl at 20,000 cells/well) in 384-well PDL coated Microplates • 2. Allow cells to adhere overnight in humidified 37° C./10% CO2 incubator • 3. Completely remove cell growth media from microplate and replace with 25 μl loading buffer • 4. Incubate Microplate at room temperature, protected form light, for 90 min • 5. Remove loading buffer and replace with 25 μl 1× Assay Buffer±test compound. • 6. Incubate microplate at room temperature, protected form light, for 30 min • 7. At FLIPR-Tetra 384: Add stimulant (Thallium/Potassium) solution to microplate and monitor fluorescence. Excitation=400 nm, Emission=460 & 580 nm. Collect data for ˜10 min. Data Calculation—

A word on the IC50: it is the point on the concentration scale where inhibition reaches its midpoint.

Sequence of hROMK (hKir1.1) (P48048 whole entry): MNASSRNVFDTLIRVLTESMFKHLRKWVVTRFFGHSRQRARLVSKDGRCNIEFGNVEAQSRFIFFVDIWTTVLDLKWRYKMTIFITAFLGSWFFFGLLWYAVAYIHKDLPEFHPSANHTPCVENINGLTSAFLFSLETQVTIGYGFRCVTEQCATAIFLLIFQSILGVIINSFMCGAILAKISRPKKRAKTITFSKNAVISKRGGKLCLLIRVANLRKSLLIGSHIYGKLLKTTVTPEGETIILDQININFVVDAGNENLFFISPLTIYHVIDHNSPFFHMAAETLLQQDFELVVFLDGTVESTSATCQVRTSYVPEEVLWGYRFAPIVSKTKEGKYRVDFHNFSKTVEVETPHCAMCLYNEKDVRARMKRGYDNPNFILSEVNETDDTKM
Sequence of Kir1.1 (ROMK1) (P48048 whole entry): as above

On to `Cc1c([C@@H]2CN3CCN(C(=O)C4CCc5nc(-n6cnnn6)ncc54)C[C@@H]3CO2)ccc(F)c1C#N` (single isomer, unassigned) [Example 2C], for which the IC50 was 150 nM in test [1] and 120 nM in test [2].

As to `Cc1c([C@@H]2CN3CCN(C(=O)C4CCc5nc(-n6cnnn6)ncc54)C[C@@H]3CO2)ccc(F)c1C#N` (single isomer, unassigned) [Example 2D], the IC50 came to 100 nM in test [1] and 130 nM in test [2].

In turn, `Cc1c([C@@H]2CN3CCN(C(=O)C4CCc5nc(-n6cnnn6)ncc54)C[C@H]3CO2)ccc(F)c1C#N` (single isomer, unassigned) [Example 2E] gave a 50% inhibitory concentration (IC50) in test [2] of 130 nM.

Turning to `Cc1c([C@@H]2CN3CCN(C(=O)C4CCc5nc(-n6cnnn6)ncc54)C[C@H]3CO2)ccc(F)c1C#N` (single isomer, unassigned) [Example 2F], 390 nM corresponded to half-maximal inhibition in test [2] (IC50).

Regarding `Cc1c([C@H]2CN3CCN(C(=O)C4CCc5nc(-n6cnnn6)ncc54)C[C@H]3CO2)ccc(F)c1C#N` (single isomer, unassigned) [Example 2G], the figures for the IC50 in test [1] and in test [2] were 130 nM and 270 nM, respectively.

As to `Cc1c([C@H]2CN3CCN(C(=O)C4CCc5nc(-n6cnnn6)ncc54)C[C@H]3CO2)ccc(F)c1C#N` (single isomer, unassigned) [Example 2H], the IC50 in test [1] was determined as 100 nM; in test [2], 140 nM.

In the case of `Cc1c([C@H]2CN3CCN(C(=O)C4CCc5cc(-n6cnnn6)ncc54)C[C@H]3CO2)ccc(F)c1C#N` (single isomer, unassigned) [Example 35], the IC50 was found to be 110 nM in test [1] and 180 nM in test [2].

As to `Cc1c([C@@H]2CN3CCN(C(=O)C4CCc5cc(-n6cnnn6)ncc54)C[C@H]3CN2)ccc(F)c1C#N` (single isomer, unassigned) [Example 96A], the IC50 turned out to be 100 nM in test [1] and 200 nM in test [2].

Turning to `Cc1c([C@@H]2CN3CCN(C(=O)C4CCc5cc(-n6cnnn6)ncc54)C[C@H]3CN2)ccc(F)c1C#N` (single isomer, unassigned) [Example 96B], the IC50 in test [1] and in test [2] was over 1000 nM in each case.

Take `Cc1c(C2CN3CCN(C(=O)[C@H]4CCc5nc(-n6cnnn6)ncc54)C[C@@H]3CO2)ccc(F)c1C#N` (stereo in doubt) [Example 2A, 6-Fluoro-2-methyl-3-[(3S,9aR)-8-{[(5S)-2-(1H-tetrazol-1-yl)-6,7-dihydro-5H-cyclopenta[d]pyrimidin-5-yl]carbonyl}octahydropyrazino[2,1-c][1,4]oxazin-3-yl]benzonitrile]: the IC50 worked out at 100 nM in test [1] and 220 nM in test [2].

Turning to `Cc1c([C@H]2CN3CCN(C(=O)[C@@H]4CCc5nc(-n6cnnn6)ncc54)C[C@@H]3CO2)ccc(F)c1C#N` [Example 2B, 6-fluoro-2-methyl-3-[(3S,9aR)-8-{[(5R)-2-(1H-tetrazol-1-yl)-6,7-dihydro-5H-cyclopenta[d]pyrimidin-5-yl]carbonyl}octahydropyrazino[2,1-c][1,4]oxazin-3-yl]benzonitrile], the IC50 in test [1] turned out to be 100 nM; in test [2], 350 nM.

`Cc1c([C@H]2CN3CCN(C(=O)C4CCc5nc(-n6cnnn6)ncc54)C[C@H]3CO2)ccc2c1COC2=O` (some centres unmarked) [Example 3]: the IC50 turned out to be 530 nM in test [1] and 250 nM in test [2].

In the case of `Cc1c([C@H]2CN3CCN(C(=O)C4CCc5nc(-n6cnnn6)ccc54)C[C@H]3CO2)ccc(F)c1C#N` (some centres unmarked) [Example 4], the concentration for half-maximal inhibition (IC50) in test [1] was found to be 180 nM; in test [2], 460 nM.

For `Cc1c([C@H]2CN3CCN(C(=O)C4CCc5nc(-n6cnnn6)ccc54)C[C@H]3CO2)ccc(F)c1C#N` (some centres unmarked) [Example 5], the IC50 in test [1] stood at 100 nM; in test [2], 170 nM.

Take `Cc1c([C@@H]2CN3CCN(C(=O)C4CCc5nc(-n6cnnn6)ccc54)C[C@H]3CO2)ccc(F)c1C#N` (some centres unmarked) [Example 6]: the IC50 is 100 nM in test [1] and 240 nM in test [2].

In the case of `Cc1c([C@@H]2CN3CCN(C(=O)C4CCc5nc(-n6cnnn6)ccc54)C[C@H]3CO2)ccc(F)c1C#N` (some centres unmarked) [Example 7], the IC50 worked out at 80 nM in test [1] and 140 nM in test [2].

`Cc1c([C@H]2CN3CCN(C(=O)C4CCCc5nc(-n6cnnn6)ccc54)C[C@H]3CO2)ccc(F)c1C#N` (some centres unmarked) [Example 8]: the IC50 came out at 240 nM in test [1] and 350 nM in test [2].

As for `Cc1c([C@H]2CN3CCN(C(=O)C4CCCc5nc(-n6cnnn6)ccc54)C[C@H]3CO2)ccc(F)c1C#N` (some centres unmarked) [Example 9], the values for the IC50 in test [1] and in test [2] were 190 nM and 610 nM, respectively.

In the case of `Cc1c([C@@H]2CN3CCN(C(=O)C4CCCc5nc(-n6cnnn6)ccc54)C[C@H]3CO2)ccc(F)c1C#N` (some centres unmarked) [Example 10], the figures for the IC50 in test [1] and in test [2] were 180 nM and 410 nM, respectively.

As for `Cc1c([C@@H]2CN3CCN(C(=O)C4CCCc5nc(-n6cnnn6)ccc54)C[C@H]3CO2)ccc(F)c1C#N` (some centres unmarked) [Example 11], the figures for the IC50 in test [1] and in test [2] were 240 nM and 360 nM, respectively.

`Cc1c([C@@H]2CN3CCN(C(=O)C4CCCc5nc(-n6cnnn6)ccc54)C[C@@H]3CO2)ccc(F)c1C#N` (some centres unmarked) [Example 12]: the concentration for half-maximal inhibition (IC50) was determined as 160 nM in test [1] and 450 nM in test [2].

As to `Cc1c([C@H]2CN3CCN(C(=O)C4CCCc5nc(-n6cnnn6)ccc54)C[C@@H]3CO2)ccc(F)c1C#N` (some centres unmarked) [Example 13], the IC50 in test [1] came to 260 nM; in test [2], 320 nM.

Turning to `O=C1OCCc2cc([C@@H]3CN4CCN(C(=O)C5CCCc6nc(-n7cnnn7)ccc65)C[C@H]4CO3)ccc21` (some centres unmarked) [Example 14], the IC50 in test [1] is 210 nM; in test [2] it was 470 nM.

With `Cc1c(C#N)cccc1[C@@H]1CN2CCN(C(=O)C3CCc4nc(-n5cnnn5)ccc43)C[C@H]2CO1` (some centres unmarked) [Example 71], in test [1], the IC50 was 120 nM.

The compound `Cc1c(C#N)cccc1[C@@H]1CN2CCN(C(=O)C3CCc4cc(-n5cnnn5)ncc43)C[C@@H]2CO1` (some centres unmarked) [Example 94] displayed an IC50 in test [2] of 290 nM. This counts as sub-micromolar.

`O=C1OCc2c1ccc([C@@H]1CN3CCN(C(=O)C4CCc5nc(-n6cnnn6)ccc54)C[C@H]3CO1)c2C1CC1` (some centres unmarked) [Example 95] gave an IC50 in test [2] of 180 nM.
